Measured values taken from patent US20120095036A1, “NOVEL SUBSTITUTED INDAZOLE AND AZA-INDAZOLE DERIVATIVES AS GAMMA SECRETASE MODULATORS” (priority 2009, published 2012).

Key:
Type in all cases: cell-based
Aβ42 [1] = test: Method 2: Aβ42 Alphalisa on supernatant of SKNBE2 cells carrying APP 695 wild type; details: SKNBE2 cells APP 695 wild type, overnight
Method: (§1) Screening was carried out using SKNBE2 cells carrying the APP 695—wild type, grown in Dulbecco's Modified Eagle's Medium/Nutrient mixture F-12 (DMEM/NUT-mix F-12) (HAM) provided by Invitrogen (cat no. 10371-029) containing 5% Serum/Fe supplemented with 1% non-essential amino acids, 1-glutamine 2 mM, Hepes 15 mM, penicillin 50 U/ml (units/ml) en streptomycin 50 μg/ml. Cells were grown to near confluency.
(§2) The screening was performed using a modification of the assay as described in Citron et al (1997) Nature Medicine 3: 67. Briefly, cells were plated in a 384-well plate at 10^4 cells/well in Ultraculture (Lonza, BE12-725F) supplemented with 1% glutamine (Invitrogen, 25030-024), 1% non-essential amino acid (NEAA), penicillin 50 U/ml en streptomycin 50 μg/ml in the presence of test compound at different test concentrations. The cell/compound mixture was incubated overnight at 37° C., 5% CO2, The next day the media were assayed by two sandwich immuno-assays, for Aβ42 and Aβtotal.
(§3) Aβtotal and Aβ42 concentrations were quantified in the cell supernatant using the Aphalisa technology (Perkin Elmer). Alphalisa is a sandwich assay using biotinylated antibody attached to streptavidin coated donorbeads and antibody conjugated to acceptor beads. In the presence of antigen, the beads come into close proximity. The excitation of the donor beads provokes the release of singlet oxygen molecules that trigger a cascade of energy transfer in the acceptor beads, resulting in light emission. To quantify the amount of Aβ42 in the cell supernatant, monoclonal antibody specific to the C-terminus of Aβ42 (JRF/cAβ42/26) was coupled to the receptor beads and biotinylated antibody specific to the N-terminus of AB (JRF/AβN/25) was used to react with the donor beads. To quantify the amount of Aβtotal in the cell supernatant, monoclonal antibody specific to the N-terminus of AB (JRF/AβN/25) was coupled to the receptor beads and biotinylated antibody specific to the mid region of Aβ (biotinylated 4G8) was used to react with the donor beads.
(§4) To obtain the values reported in Table 3b, the data were calculated as percentage of the maximum amount of amyloid Beta 42 measured in the absence of the test compound. The sigmoidal dose response curves were analyzed using non-linear regression analysis with percentage of the control plotted against the log concentration of the compound. A 4-parameter equation was used to determine the IC50.

Aβtotal [2] = test: Method 1: Aβtotal sandwich ELISA on media of SKNBE2 cells carrying APP 695 wild type; details: SKNBE2 cells APP 695 wild type, 18 hours
Method: as §1, with “Gibco” for “Invitrogen”, “31330-38)” for “10371-029)”, “acids.” for “acids, 1-glutamine 2 mM, Hepes 15 mM, penicillin 50 U/ml (units/ml) en streptomycin 50 μg/ml.”
(§5) The screening was performed using the assay as described in Citron et al (1997) Nature Medicine 3: 67. Briefly, cells were plated in a 96-well plate at about 10^5 cells/ml one day prior to addition of compounds. Compounds were added to the cells in Ultraculture (Lonza, BE12-725F) supplemented with 1% glutamine (Invitrogen, 25030-024) for 18 hours. The media were assayed by two sandwich ELISAs, for Aβ42 and Aβtotal. Toxicity of the compounds was assayed by WST-1 cell proliferation reagent (Roche, 1 644 807) according to the manufacturer's protocol.
To quantify the amount of Aβtotal in the cell supernatant, samples and standards were added to a 6E10-coated plate. The plate was allowed to incubate overnight at 4° C. in order to allow formation of the antibody-amyloid complex. Following this incubation and subsequent wash steps a selective anti-AB-antibody conjugate (biotinylated 4G8) was added and incubated for a minimum of 1 hour in order to allow formation of the antibody-Amyloid-antibody-complex. After incubation and appropriate wash steps, a Streptavidine-Peroxidase-Conjugate was added, followed 30 minutes later by an addition of Quanta Blu fluorogenic peroxidase substrate according to the manufacturer's instructions (Pierce Corp., Rockford, Il).
(§6) To obtain the values reported in Table 3a, the sigmoidal dose response curves were analysed by computerised curve-fitting, with percent of inhibition plotted against compound concentration. A 4-parameter equation (model 205) in XLfit was used to determine the IC50. The top and the bottom of the curve were fixed to 100 and 0, respectively, and the hill slope was fixed to 1. The IC50 represents the concentration of a compound that is required for inhibiting a biological effect by 50% (Here, it is the concentration where Aβ peptide level is reduced by 50%).

Aβtotal [3] = test: Method 2: Aβtotal Alphalisa on supernatant of SKNBE2 cells carrying APP 695 wild type; details: SKNBE2 cells APP 695 wild type, overnight
Method: as §1, §2, §3, §4

Aβ42 [4] = test: Method 1: Aβ42 sandwich ELISA on media of SKNBE2 cells carrying APP 695 wild type (γ-secretase-modulating activity); details: SKNBE2 cells APP 695 wild type, 18 hours
Method: as §1, with “Gibco” for “Invitrogen”, “31330-38)” for “10371-029)”, “acids.” for “acids, 1-glutamine 2 mM, Hepes 15 mM, penicillin 50 U/ml (units/ml) en streptomycin 50 μg/ml.”
as §5
To quantify the amount of Aβ42 in the cell supernatant, commercially available Enzyme-Linked-Immunosorbent-Assay (ELISA) kits were used (Innotest® β-Amyloid(1-42), Innogenetics N.V., Ghent, Belgium). The Aβ42 ELISA was performed essentially according to the manufacturer's protocol. Briefly, the standards (dilutions of synthetic A131-42) were prepared in polypropylene Eppendorf with final concentrations of 8000 down to […] (½ dilution step). Samples, standards and blanks (100 μl) were added to the anti-Aβ42-coated plate supplied with the kit (the capture antibody selectively recognizes the C-terminal end of the antigen). The plate was allowed to incubate 3 h at 25° C. in order to allow formation of the antibody-amyloid complex. Following this incubation and subsequent wash steps a selective anti-A13-antibody conjugate (biotinylated 3D6) was added and incubated for a minimum of 1 hour in order to allow formation of the antibody-Amyloid-antibody-complex. After incubation and appropriate wash steps, a Streptavidine-Peroxidase-Conjugate was added, followed 30 minutes later by an addition of 3,3′,5,5′-tetramethylbenzidine (TMB)/peroxide mixture, resulting in the conversion of the substrate into a coloured product. This reaction was stopped by the addition of sulfuric acid (0.9 N) and the colour intensity was measured by means of photometry with an ELISA-reader with a 450 nm filter.
as §6

Row | SMILES | IC50 (Aβ42 [1]; Homo sapiens) | IC50 (Aβtotal [3]; Homo sapiens) | IC50 (Aβ42 [4]; Homo sapiens) | IC50 (Aβ42 [1]) | also measured
1 | CCCCn1cc2cccc(Nc3ccc(-n4cnc(C)c4)c(OC)c3)c2n1 [Compound 3, 2-butyl-N-[3-methoxy-4-(4-methyl-1H-imidazol-1-yl)phenyl]-2H-indazol-7-amine .2HCl] | < 3000 nM | > 3000 nM | 113 nM |  | IC50 (Aβtotal [2]; Homo sapiens): > 3000 nM
2 | COc1cccc(-n2nc3c(Nc4ccc(-c5ocnc5C)nc4)cccc3c2C)c1 [Compound 4, 2-(3-methoxyphenyl)-3-methyl-N-[6-(4-methyl-5-oxazolyl)-3-pyridinyl]-2H-indazol-7-amine] | 22 nM | 4790 nM | 55 nM |  | IC50 (Aβtotal [2]; Homo sapiens): > 3000 nM
3 | COc1cccc(-n2nc3c(Nc4ccc(-n5cnc(C)n5)c(OC)c4)cccc3c2C)c1 [Compound 5, N-[3-methoxy-4-(3-methyl-1H-1,2,4-triazol-1-yl)phenyl]-2-(3-methoxyphenyl)-3-methyl-2H-indazol-7-amine .1.9HCl] | 18 nM | 8130 nM | 31 nM |  | IC50 (Aβtotal [2]; Homo sapiens): > 3000 nM
4 | COc1cc(Nc2cccc3cn(C)nc23)ccc1-n1cnc(C)c1 [Compound 9, N-[3-methoxy-4-(4-methyl-1H-imidazol-1-yl)phenyl]-2-methyl-2H-indazol-7-amine] | < 3000 nM | > 3000 nM | 1470 nM |  | IC50 (Aβtotal [2]; Homo sapiens): > 10000 nM
5 | CCCCn1nc2c(Nc3ccc(-n4cnc(C)c4)c(OC)c3)cccc2c1C [Compound 10, 2-butyl-N-[3-methoxy-4-(4-methyl-1H-imidazol-1-yl)phenyl]-3-methyl-2H-indazol-7-amine .2HCl] |  |  |  | < 3000 nM | IC50 (Aβtotal [2]): > 3000 nM; IC50 (Aβtotal [3]): > 3000 nM; IC50 (Aβ42 [4]): 99 nM
6 | CCCCn1cc2cc(C#N)cc(Nc3ccc(-n4cnc(C)c4)c(OC)c3)c2n1 [Compound 11, 2-butyl-7-[[3-methoxy-4-(4-methyl-1H-imidazol-1-yl)phenyl]amino]-2H-indazole-5-carbonitrile .2HCl] |  |  |  | < 3000 nM | IC50 (Aβtotal [2]): > 3000 nM; IC50 (Aβtotal [3]): > 3000 nM; IC50 (Aβ42 [4]): 77 nM
7 | CCCCn1cc2cc(CN)cc(Nc3ccc(-n4cnc(C)c4)c(OC)c3)c2n1 [Compound 12, 2-butyl-7-[[3-methoxy-4-(4-methyl-1H-imidazol-1-yl)phenyl]amino]-2H-indazole-5-methanamine .4HCl] |  |  |  | > 3000 nM | 
8 | COc1cc(Nc2cccc3cn(CC4CC4)nc23)ccc1-n1cnc(C)c1 [Compound 13, 2-(cyclopropylmethyl)-N-[3-methoxy-4-(4-methyl-1H-imidazol-1-yl)phenyl]-2H-indazol-7-amine .2HCl] |  |  |  | 79 nM | IC50 (Aβtotal [2]): > 3000 nM; IC50 (Aβtotal [3]): > 10000 nM; IC50 (Aβ42 [4]): 283 nM
9 | CCOc1cc(C)c(-n2nc3c(Nc4ccc(-n5cnc(C)c5)c(OC)c4)cccc3c2C)cc1C(C)C [Compound 14, 2-[4-ethoxy-2-methyl-5-(1-methylethyl)phenyl]-N-[3-methoxy-4-(4-methyl-1H-imidazol-1-yl)phenyl]-3-methyl-2H-indazol-7-amine] | 20 nM | 7080 nM | 29 nM |  | 

Further lines, with some results ahead:

Row | IC50 (Aβ42 [1]; Homo sapiens) | IC50 (Aβtotal [3]; Homo sapiens) | IC50 (Aβ42 [4]; Homo sapiens) | IC50 (Aβ42 [1]) | SMILES | also measured
10 | > 3000 nM | > 3000 nM |  |  | COc1cc(Nc2cccc3cn(C)nc23)ccc1-n1cnc(C)n1 [Compound 17, N-[3-methoxy-4-(3-methyl-1H-1,2,4-triazol-1-yl)phenyl]-2-methyl-2H-indazol-7-amine] | 
11 |  |  |  | > 3000 nM | Cc1ncc(-c2ccc(Nc3cccc4cn(C5CCC5)nc34)cc2)o1 [Compound 26, 2-cyclobutyl-N-[4-(2-methyl-5-oxazolyl)phenyl]-2H-indazol-7-amine .1.2HCl] | IC50 (Aβtotal [3]): > 3000 nM
12 |  |  |  | > 3000 nM | COCCn1cc2cccc(Nc3ccc(-c4cnc(C)o4)cc3)c2n1 [Compound 27, 2-(2-methoxyethyl)-N-[4-(2-methyl-5-oxazolyl)phenyl]-2H-indazol-7-amine .1.5HCl .1.25H2O] | 
13 |  |  |  | > 3000 nM | COCCn1cc2cccc(Nc3ccc(-c4ocnc4C)c(OC)c3)c2n1 [Compound 36, 2-(2-methoxyethyl)-N-[3-methoxy-4-(4-methyl-5-oxazolyl)phenyl]-2H-indazol-7-amine .1.5HCl .0.18H2O] | 
14 |  |  |  | 1410 nM | Cc1ncc(-c2ccc(Nc3cccc4cn(CC5CC5)nc34)cn2)o1 [Compound 43, 2-(cyclopropylmethyl)-N-[6-(2-methyl-5-oxazolyl)-3-pyridinyl]-2H-indazol-7-amine .2HCl] | 
15 | 35 nM | 6920 nM |  |  | Cc1ncc(-c2ccc(Nc3cc(F)cc4c(C)n(-c5ccc(F)cc5)nc34)cn2)o1 [Compound 47, 5-fluoro-2-(4-fluorophenyl)-3-methyl-N-[6-(2-methyl-5-oxazolyl)-3-pyridinyl]-2H-indazol-7-amine] | 
16 | > 3000 nM | > 3000 nM |  |  | COc1cc(Nc2cccc3cn(C)nc23)ccc1-c1cnc(C)s1 [Compound 49, N-[3-methoxy-4-(2-methyl-5-thiazolyl)phenyl]-2-methyl-2H-indazol-7-amine] | 
17 | 676 nM | > 10000 nM | 865 nM |  | COc1cc(Nc2cccc3c(C)n(-c4ccc(F)cc4F)nc23)ccc1-c1cnc(C)s1 [Compound 50, 2-(2,4-difluorophenyl)-N-[3-methoxy-4-(2-methyl-5-thiazolyl)phenyl]-3-methyl-2H-indazol-7-amine] | 
18 |  |  |  | 631 nM | COc1cccc(-n2nc3c(Nc4ccc(-c5ccnn5C)cc4)cccc3c2C)c1 [Compound 53, 2-(3-methoxyphenyl)-3-methyl-N-[4-(1-methyl-1H-pyrazol-5-yl)phenyl]-2H-indazol-7-amine .2HCl .0.5H2O] | IC50 (Aβtotal [3]): > 10000 nM
19 | 603 nM | > 10000 nM |  |  | Cc1cn(-c2ccc(Nc3cncc4cn(CC(F)(F)F)nc34)cc2F)cn1 [Compound 55, N-[3-fluoro-4-(4-methyl-1H-imidazol-1-yl)phenyl]-2-(2,2,2-trifluoroethyl)-2H-pyrazolo[4,3-c]pyridin-7-amine] | 
20 | 708 nM | > 10000 nM |  |  | COc1cc(Nc2cc(C(C)C)nc3cn(CC(F)(F)F)nc23)ccc1-n1cnc(C)n1 [Compound 56, N-[3-methoxy-4-(3-methyl-1H-1,2,4-triazol-1-yl)phenyl]-5-(1-methylethyl)-2-(2,2,2-trifluoroethyl)-2H-pyrazolo[4,3-b]pyridin-7-amine] | 
